According to patent publication US3932492A, “Process for preparing new amidine compounds” (Kao Soap Co., Ltd., priority 1973, dated 1976):

Test system: Wakin goldfish
Test: Toxicity to fish, plant waste water test method (JIS-K-0102-1964)
Type: in vivo
Procedure: The test was carried out according to plant waste water test method (JIS-K-0102-1964). Wakin goldfish was used as the subject.
*A concentration at which half the number of the subjects died within 48
hours. The higher the number of ppm., the lower the toxicity to fish.

Substance: Benzalkonium chloride
- TLM (concentration at which half the number of the subjects died within 48 hours): 0.87 ppm
